Among the data in ChEMBL document CHEMBL3044864, “Synthesis and in vitro anticancer activities of novel aryl-naphthalene lignans” (Med Chem Res, 2012) are IC50 and Activity values, retold here.

In general, IC50 refers to the concentration that inhibits the measured activity by half. Low readings indicate greater potency, high ones weaker potency.

Experiment [1] has as its system KB. The experiment in a line: Cytotoxicity against Homo sapiens (human) KB cells after 72 hr by MTT assay. Format: functional, cell-based.
The next experiment deals with SW480. Put plainly: Cytotoxicity against Homo sapiens (human) SW480 cells after 72 hr by MTT assay. Format: functional, cell-based. Conditions: SW480, 72 h. Background: Tetrazolium assays rely on reduction of a dye to a coloured formazan, in cell work by metabolically active cells.
The next experiment deals with A549. The experiment in a line: Cytotoxicity against Homo sapiens (human) A549 cells after 72 hr by MTT assay. Format: functional, cell-based. Conditions: A549, 72 h.
The subject of a further experiment is Leishmania. The experiment in a line: Antileishmanial activity against Leishmania promastigotes. Format: functional, organism-based.
Experiment [2] in a line: Antiproliferative activity against Homo sapiens (human) monocytes. In kind it is cell-based. To be noted: Monocyte.
In experiment [3] the test system is KB. Put plainly: Induction of apoptosis in Homo sapiens (human) KB cells assessed as downregulation of bcl2 expression at 5 to 15 uM after 72 hr by Western blot analysis. Format: functional, cell-based. On the technique in general: In western blotting, separated proteins are transferred to a membrane and probed.
Experiment [4] relates to KB. The experiment in a line: Induction of apoptosis in Homo sapiens (human) KB cells assessed as appearance of apoptotic bodies n at 5 to 10 uM after 72 hr using AO/EB staining by fluorescence microscopy. In kind it is functional, cell-based.
Experiment [5] concerns KB. Put plainly: Induction of apoptosis in Homo sapiens (human) KB cells assessed as upregulation of bax expression at 5 to 15 uM after 72 hr by Western blot analysis. Format: functional, cell-based.
For experiment [6], the system named is KB. The experiment in a line: Induction of apoptosis in Homo sapiens (human) KB cells assessed as increase in cleaved caspase 3 level after 72 hr by Western blot analysis. Format: functional, cell-based.
The subject of experiment [7] is KB. Put plainly: Induction of apoptosis in Homo sapiens (human) KB cells assessed as early apoptic cells with nuclear condensation at 5 to 10 uM after 72 hr using AO/EB staining by fluorescence microscopy. In kind it is functional, cell-based.
The subject of experiment [8] is KB. Put plainly: Induction of apoptosis in Homo sapiens (human) KB cells assessed as nuclear fragmentation at 5 to 10 uM after 72 hr using AO/EB staining by fluorescence microscopy. In kind it is functional, cell-based.
Experiment [9] relates to KB. Put plainly: Induction of apoptosis in Homo sapiens (human) KB cells assessed as nuclear condensation at 5 to 10 uM after 72 hr using Hoechst/PI staining by fluorescence microscopy. Format: functional, cell-based.

Calls of active or inactive are those of the source. The rule behind the calls is not given here. A value given as a limit tells only on which side of the number the result lay.

As for `COc1cc(-c2c3c(c(O)c4cc5c(cc24)OCO5)COC3=O)cc(OC)c1OC` [DEHYDROPODOPHYLLOTOXIN], the IC50 with KB [1] is 29.1 µM; in the experiment with SW480, more than 100 µM; with A549 it was 107 µM.

Take `COc1cc2c(O)c3c(c(-c4ccc5c(c4)OCO5)c2cc1OC)C(=O)OC3` [DIPHYLLIN]: the 50% inhibitory concentration (IC50) came to 14.4 µM with Leishmania; 5.3 µM in the experiment with KB [1]; 3.4 µM in the experiment on SW480; 35.2 µM in [2]; 8 µM in the experiment with A549.

Take `COc1ccccc1-c1c2c(c(O)c3cc4c(cc13)OCO4)COC2=O`: the 50% inhibitory concentration (IC50) with KB [1] is more than 100 µM; in the experiment with SW480 it was 21.1 µM; in the experiment on A549, more than 100 µM.

Regarding `O=C1OCc2c1c(-c1ccccc1)c1cc3c(cc1c2O)OCO3`, the IC50 in the experiment with KB [1], in the experiment with SW480 and in the experiment on A549 was more than 100 µM in each case.

For `Cc1ccc(-c2c3c(c(O)c4cc5c(cc24)OCO5)COC3=O)cc1`, the result with KB [3], in the experiment with KB [4], in the experiment with KB [5], in the experiment on KB [7], in the experiment with KB [8] and with KB [9] was Active. In addition, the IC50 in the experiment on KB [1] worked out at 18.9 µM; with SW480 it was 4 µM; with A549, 30 µM. In addition, the Activity entry in the experiment on KB [6] is “Dose-dependent effect”.

Regarding `O=C1OCc2c1c(-c1ccc3c(c1)OCO3)c1cc3c(cc1c2O)OCO3` [TAIWANIN E], the IC50 with KB [1] is 19.7 µM; with SW480, more than 100 µM; in the experiment with A549 it was 53.3 µM.

As for `COc1cc(OC)cc(-c2c3c(c(O)c4cc5c(cc24)OCO5)COC3=O)c1`, the IC50 in the experiment with KB [1] was 33.3 µM; with SW480, more than 100 µM; in the experiment on A549, more than 100 µM.

As to `COc1cccc(-c2c3c(c(O)c4cc5c(cc24)OCO5)COC3=O)c1`, the IC50 is more than 100 µM in the experiment on KB [1], more than 100 µM in the experiment on SW480 and 68.6 µM in the experiment with A549.

Take `COc1ccc(OC)c(-c2c3c(c(O)c4cc5c(cc24)OCO5)COC3=O)c1`: the IC50 with KB [1], with SW480 and in the experiment on A549 was more than 100 µM throughout.

Take `COc1ccc(-c2c3c(c(O)c4cc5c(cc24)OCO5)COC3=O)cc1OC`: the values for the IC50 in the experiment on KB [1], with SW480 and in the experiment on A549 were 45.2 µM, more than 100 µM and 39.5 µM, respectively.

For `COc1ccc(-c2c3c(c(O)c4cc5c(cc24)OCO5)COC3=O)cc1`, the IC50 with KB [1] is more than 100 µM; with SW480, more than 100 µM; in the experiment on A549 it was 35.6 µM.

For the molecule `COc1cc([C@@H]2c3cc4c(cc3[C@@H](O[C@@H]3O[C@@H]5CO[C@@H](C)O[C@H]5[C@H](O)[C@H]3O)[C@H]3COC(=O)[C@H]23)OCO4)cc(OC)c1O` [ETOPOSIDE], the IC50 in the experiment with KB [1] turned out to be 8.3 µM; in the experiment with SW480, 6.4 µM; in the experiment with A549, 3.9 µM.
